{"source": "patent US12570603B2", "about": "“FABP4/5 inhibitors, methods of use and methods of making” (Novius Therapeutics, LLC, priority 2021, dated 2026)", "key": {"BT-549 cells": {"test_system": "BT-549 cells", "assay": "Proliferation assay, combination with chemotherapy", "format": "cell-based, human", "conditions": "B4 1 μM with doxorubicin 0 to 100 nM", "procedure": "(§1) 2000 cells were plated in each well of 96-well plate. The next day cells were treated with compounds and incubated in Incucyte for 4 days. Images taken every 4 hours for the duration of the time were analyzed to calculate percentage of confluency in response to the treatments. Growth inhibition was calculated as 1−(percentage of viable cells out of untreated cells)."}, "[1]": {"test_system": "MB-231 shC and shF5 cells", "assay": "Proliferation assay, MB-231 lines expressing control shRNA (shC) or FABP5 shRNA (shF5)", "format": "cell-based", "conditions": "MB-231 shC vs shF5, different concentrations", "procedure": "as §1"}, "LX-2 cells": {"test_system": "LX-2 cells", "assay": "Hepatic stellate cells activation assay (αSMA after TGF-β)", "format": "cell-based, human", "conditions": "B4 0.1 to 5 μM versus untreated cells", "procedure": "LX-2 cells were treated with compound for 6 h. then stimulated with TGF-β ([…]) for additional 24 h. Cells were fixed with 4% paraformaldehyde and immununostained with the fibrosis marker αSMA. Nuclei were stained with Dapi. Images and quantification of positive cells was done using Cytation5 (Agilent)."}, "FABP4": {"biological_target": "T1, FABP4 (Homo sapiens, UniProt P15090)", "T1 construct": "made in house", "T1 sequence (P15090 whole entry, species assumed)": "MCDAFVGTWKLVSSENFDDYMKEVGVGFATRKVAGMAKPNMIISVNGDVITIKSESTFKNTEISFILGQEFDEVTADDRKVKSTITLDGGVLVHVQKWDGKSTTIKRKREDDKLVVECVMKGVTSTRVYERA", "assay": "FABP binding assay by fluorescence titration (ANS competition)", "procedure": "(§2) This example illustrates a binding assay study used to determine the binding affinity of the various inhibitor compounds disclosed herein with the various FABPs: FABP3, FABP4, FABP5 and FABP7.\n(§3) Binding assays for FABP3, FABP4, FABP5 and FABP7 were carried out by fluorescence titrations. FABPs were bacterially expressed and purified and the equilibrium dissociation constants (Kd) that characterize their interactions with different compounds were measured by fluorescence competition assays. The method entails two steps as described in e.g., Lin, Q. et al., “Ligand selectivity of the peroxisome proliferator-activated receptor alpha,” Biochemistry 38, 185-190, doi:10.1021/bi9816094 bi9816094 [pii](1999). In the first step, Kd for the association of the protein with the fluorescent fatty acid probe ANS was measured. Protein ([…]) was titrated with ANS from a concentrated solution in DMSO. Ligand binding was monitored by following the increase in the fluorescence of the ligand upon binding to the protein, and Kd for the association of ANS with the each FABP was computed from titration curves as described in e.g., Norris, A. W. & Li, E., “Fluorometric titration of the CRABPs,” Methods Mol Biol 89, 123-139 (1998)). Kds for binding of non-fluorescent ligands were then measured by monitoring their ability to displace ANS in the binding pocket of the protein. Each FABP was pre-complexed with ANS at 1:1 molar ratio and titrated with the different compounds whose binding was reflected by a decrease in probe fluorescence. Kds were extracted from the EC50 of the competition curve and the measured Kd for ANS.\n(§4) Binding assays for FABP3, FABP4, FABP5 and FABP7 were carried out by fluorescence titrations as described in Example 16."}, "FABP5": {"biological_target": "T2, FABP5 (Homo sapiens, UniProt Q01469)", "T2 construct": "made in house", "T2 sequence (Q01469 whole entry, species assumed)": "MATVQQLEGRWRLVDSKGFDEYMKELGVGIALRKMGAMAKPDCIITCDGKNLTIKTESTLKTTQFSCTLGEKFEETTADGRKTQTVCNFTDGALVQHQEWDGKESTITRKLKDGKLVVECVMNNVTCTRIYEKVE", "assay": "FABP binding assay by fluorescence titration (ANS competition)", "procedure": "as §2, §3, §4"}, "[2]": {"test_system": "LX-2 hepatic stellate cells", "assay": "Lipid uptake assay, Oil Red O staining of lipid droplets", "format": "cell-based, human", "procedure": "1) LX-2: Human LX-2 hepatic stellate cells were treated with compound for 2 days in the presence or absence of 2% lipid mixture (Sigma, USA) in the growth media. Cells were stained with Oil Red O and lipid content was quantified using ImageJ."}, "PPARδ": {"test_system": "PPARδ", "assay": "Transactivation assay, PPRE luciferase reporter in COS-7 cells", "format": "cell-based", "conditions": "compared to GW0742, FIG. 5", "procedure": "(§5) COS-7 were cultured in 6-well plates and co-transfected with either a luciferase reporter driven by 3 copies of a PPRE and expression vector for either PPARδ, PPARα or PPARγ together with a vector harboring cDNA for β-galactosidase, serving as a transfection control. To test whether FABP4 or FABP5 mediate activation of their cognate receptors PPARγ and PPARδ, respectively, cells were also co-transfected with a plasmid harboring sequence of either FABP4 or FABP5. 18 h post-transfection, cells were placed in a serum-free medium and treated with agonist/compound. 18 h. later, cells were lysed, luciferase activity was assayed (Promega, WI, USA) and corrected for transfection efficiency by the activity of β-galactosidase.\n(§6) COS-7 were cultured in 6-well plates and co-transfected with either a luciferase reporter driven by 3 copies of a PPRE and expression vector for either PPARδ, PPARα or PPARγ together with a vector harboring cDNA for β-galactosidase, serving as a transfection control. 18 h. post-transfection, cells were placed in a serum-free medium and treated with agonist/compound. 18 h. later, cells were lysed, luciferase activity was assayed (Promega, WI, USA) and corrected for transfection efficiency by the activity of β-galactosidase."}, "PPARγ": {"test_system": "PPARγ", "assay": "Transactivation assay, PPRE luciferase reporter in COS-7 cells", "format": "cell-based", "conditions": "tested against rosiglitazone, FIG. 4", "procedure": "as §5, §6"}, "[3]": {"assay": "Level of B4 in serum and tissues after IP injection or oral gavage", "format": "in vivo, mice", "procedure": "Male CD-1 mice (n=3) were treated with B4 either by IP injections (5 mg/kg) or by oral gavage (10 mg/kg). At times, 3, 6, and 24 hours after treatment, mice were euthanized and serum, liver, adipose, muscle and brain tissues were collected and analyzed to determine level of B4. Untreated mice were used as controls."}, "[4]": {"conditions": "IP Injection (0.35 μmole/mouse), 3 hr"}, "[5]": {"conditions": "IP Injection (0.35 μmole/mouse), 6 hr"}, "[6]": {"conditions": "IP Injection (0.35 μmole/mouse), 24 hr"}, "[7]": {"conditions": "Oral Gavage (0.71 μmole/mouse), 3 hr"}, "[8]": {"conditions": "Oral Gavage (0.71 μmole/mouse), 6 hr"}, "[9]": {"conditions": "Oral Gavage (0.71 μmole/mouse), 24 hr"}}, "note": "Like-named read-outs stand apart in the source and are kept apart here."}
{"smiles": "CC(C)Oc1cc(NC(=O)CSCC(=O)O)c(Cl)cc1Cl", "note": "[Compound B4, 2-((2-((2,4-dichloro-5-isopropoxyphenyl)amino)-2-oxoethyl)thio)acetic acid]", "values": [{"measurement": "sensitization to chemotherapy", "setting": "BT-549 cells", "result": "sensitized to chemotherapy"}, {"measurement": "TNBC cell growth, shC versus shF5", "setting": "[1]", "result": "suppressed TNBC cell growth only in the cells highly expressing FABP5"}, {"measurement": "levels of α-SMA following activation by TGF-β", "setting": "LX-2 cells", "result": "significantly lower than in untreated cells"}, {"measurement": "Kd", "setting": "FABP4; FIG. 1A/1B, read-out: binding affinity towards FABP4 (Kd)", "result": "< 1000", "unit": "nM"}, {"measurement": "Kd", "setting": "FABP4; fluorescence competition with ANS, read-out: FABP4 binding", "result": 66, "unit": "nM"}, {"measurement": "Kd", "setting": "FABP5; FIG. 1A/1B, read-out: binding affinity towards FABP5 (Kd)", "result": "< 1000", "unit": "nM"}, {"measurement": "Kd", "setting": "FABP5; fluorescence competition with ANS, read-out: FABP5 binding", "result": 36, "unit": "nM"}, {"measurement": "amount of lipid droplets (Oil Red O)", "setting": "[2]; B4 alone, activated LX-2 cells", "result": "increased the amount of LD in the cells"}, {"measurement": "lipid droplet size", "setting": "[2]; co-treatment with 2% lipid mix and B4", "result": "increases the LD size even more"}, {"measurement": "activation of transcription by PPARδ", "setting": "PPARδ", "result": "did not active transcription"}, {"measurement": "activation of transcription by PPARγ", "setting": "PPARγ", "result": "did not activate transcription"}, {"measurement": "Drug Concentration, Adipose", "setting": "[3]; [4]", "result": "7.98 ± 3.82", "unit": "µmol/kg"}, {"measurement": "Drug Concentration, Blood", "setting": "[3]; [4]", "result": "1910 ± 140", "unit": "nM"}, {"measurement": "Drug Concentration, Brain", "setting": "[3]; [4]", "result": "0.15 ± 0.04", "unit": "µmol/kg"}, {"measurement": "Drug Concentration, Liver", "setting": "[3]; [4]", "result": "7.05 ± 2.0", "unit": "µmol/kg"}, {"measurement": "Drug Concentration, Muscle", "setting": "[3]; [4]", "result": "1.7 ± 0.8", "unit": "µmol/kg"}, {"measurement": "Drug Concentration, Adipose", "setting": "[3]; [5]", "result": "2.45 ± 1.12", "unit": "µmol/kg"}, {"measurement": "Drug Concentration, Blood", "setting": "[3]; [5]", "result": "1370 ± 120", "unit": "nM"}, {"measurement": "Drug Concentration, Brain", "setting": "[3]; [5]", "result": "0.09 ± 0.01", "unit": "µmol/kg"}, {"measurement": "Drug Concentration, Liver", "setting": "[3]; [5]", "result": "3.45 ± 1.49", "unit": "µmol/kg"}, {"measurement": "Drug Concentration, Muscle", "setting": "[3]; [5]", "result": "1.07 ± 0.8", "unit": "µmol/kg"}, {"measurement": "Drug Concentration, Adipose", "setting": "[3]; [6]", "result": "0.013 ± 0.006", "unit": "µmol/kg"}, {"measurement": "Drug Concentration, Blood", "setting": "[3]; [6]", "result": "5.4 ± 2", "unit": "nM"}, {"measurement": "Drug Concentration, Brain", "setting": "[3]; [6]", "result": "0.0003 ± 0.0002", "unit": "µmol/kg"}, {"measurement": "Drug Concentration, Liver", "setting": "[3]; [6]", "result": "0.035 ± 0.016", "unit": "µmol/kg"}, {"measurement": "Drug Concentration, Muscle", "setting": "[3]; [6]", "result": "0.008 ± 0.002", "unit": "µmol/kg"}, {"measurement": "Drug Concentration, Adipose", "setting": "[3]; [7]", "result": "1.41 ± 0.002", "unit": "µmol/kg"}, {"measurement": "Drug Concentration, Blood", "setting": "[3]; [7]", "result": "1240 ± 250", "unit": "nM"}, {"measurement": "Drug Concentration, Brain", "setting": "[3]; [7]", "result": "0.1 ± 0.04", "unit": "µmol/kg"}, {"measurement": "Drug Concentration, Liver", "setting": "[3]; [7]", "result": "8.93 ± 2.2", "unit": "µmol/kg"}, {"measurement": "Drug Concentration, Muscle", "setting": "[3]; [7]", "result": "1.33 ± 0.74", "unit": "µmol/kg"}, {"measurement": "Drug Concentration, Adipose", "setting": "[3]; [8]", "result": "1.38 ± 0.05", "unit": "µmol/kg"}, {"measurement": "Drug Concentration, Blood", "setting": "[3]; [8]", "result": "980 ± 500", "unit": "nM"}, {"measurement": "Drug Concentration, Brain", "setting": "[3]; [8]", "result": "0.09 ± 0.04", "unit": "µmol/kg"}, {"measurement": "Drug Concentration, Liver", "setting": "[3]; [8]", "result": "6.47 ± 2.3", "unit": "µmol/kg"}, {"measurement": "Drug Concentration, Muscle", "setting": "[3]; [8]", "result": "0.95 ± 0.45", "unit": "µmol/kg"}, {"measurement": "Drug Concentration, Adipose", "setting": "[3]; [9]", "result": "0.11 ± 0.05", "unit": "µmol/kg"}, {"measurement": "Drug Concentration, Blood", "setting": "[3]; [9]", "result": "7.2 ± 2", "unit": "nM"}, {"measurement": "Drug Concentration, Brain", "setting": "[3]; [9]", "result": "0.0009 ± 0.0007", "unit": "µmol/kg"}, {"measurement": "Drug Concentration, Liver", "setting": "[3]; [9]", "result": "0.035 ± 0.013", "unit": "µmol/kg"}, {"measurement": "Drug Concentration, Muscle", "setting": "[3]; [9]", "result": "0.014 ± 0.018", "unit": "µmol/kg"}, {"measurement": "clearance from serum and tissues", "setting": "[3]; male CD-1 mice, IP 5 mg/kg or oral gavage 10 mg/kg, after 24 hours", "result": "cleared from the serum and tissues"}]}
